Data on 13 compounds can be found in US8097637B2, “Benzoyl-piperidine derivatives as dual modulators of the 5-HT2A and D3 receptors” (Hoffmann-La Roche Inc., priority 2007, dated 2012).

The target of assay [1] is T1, human D3 dopamine receptor (Homo sapiens, UniProt P35462).
T1 construct: expressed in transfected cells; host or cells: HEK-293 EBNA cells, transient transfection; membrane preparation
Description: Radioligand binding ([3H]-spiperone) to cloned human D3 receptor, HEK-293 EBNA cell membranes. The conditions noted are these: 0.5 nM [3H]-spiperone, 1 h at RT, Cheng-Prusoff. On the procedure:
The ability of the compounds to bind to the 5-HT2A, D3 and D2 receptors was determined using radioligand binding to cloned receptors selectively expressed in HEK-293 EBNA cells.
(§1) Membrane Preparation for Human D2, Human D3 and Human 5-HT2A Receptors
(§2) HEK-293 EBNA cells were transiently transfected with expression plasmids encoding for the human D2 or D3 dopamine- or for the human 5-HT2A serotonin receptor, respectively. The cells were harvested 48 h post-transfection, washed three times with cold PBS and stored at −80° C. prior to use. The pellet was suspended in cold 50 mM Tris-HCl buffer containing 10 mM EDTA (pH 7.4) and homogenized with a Polytron (Kinematica AG, Basel, Switzerland) for 20-30 sec at 12.000 rpm. After centrifugation at 48.000×g for 30 min at 4° C., the pellet was resuspended in cold 10 mM Tris-HCl buffer containing 0.1 mM EDTA (pH 7.4), homogenized, and centrifuged as above. This pellet was further resuspended in a smaller volume of ice cold 10 mM Tris-HCl buffer containing 0.1 mM EDTA (pH 7.4) and homogenized with a Polytron for 20-30 sec at 12.000 rpm. The protein content of this homogenate was determined with the Bio-Rad (Bradford) Protein Assay (Biorad Laboratories GmbH, München, Germany) according to the instructions of the manufacturer using gamma globulin as the standard. This homogenate was stored at −80° C. in aliquots and thawed immediately prior to use.
(§3) Radioligand Binding Assay Conditions
(§4) Aliquots of membrane preparations were thawed at RT, resuspended in assay buffer (D2, D3: 50 mM Tris-HCl, 120 mM NaCl, 5 mM MgCl2, 1 mM EDTA, 5 mM KCl, 1.5 mM CaCl2, pH=7.4; 5-HT2A: 50 mM Tris-HCl, 10 mM MgCl2, 1 mM EGTA, pH=7.4), homogenized with a Polytron for 20-30 sec at 12.000 rpm and adjusted to a final concentration of approximately 7.5 μg protein/well (D2, D3) and 15 μg protein/well (5-HT2A), respectively.
(§5) The binding affinity (Ki) of the compounds was determined using radioligand binding. Membranes were incubated in a total volume of 200 μl with a fixed concentration of radioligand (final concentration approximately 0.7 nM [^3H]-spiperone for D2, 0.5 nM [^3H]-spiperone for D3, and 1.1 nM [^3H]-ketanserin for 5-HT2A) and ten concentrations of test compound in ranging between 10 μM-0.1 nM for 1 h at RT. At the end of the incubation, the reaction mixtures were filtered on to unifilter 96-well white microplates with bonded GF/C filters (Packard BioScience, Zürich, Switzerland; preincubated for 1 h in 0.1% polyethylenimine (PEI) in assay buffer) with a Filtermate 196 harvester (Packard BioScience) and washed 3 times with cold assay buffer. The nonspecific binding was determined with equally composed reaction mixtures in the presence of 10 μM unlabeled spiperone. Per well 45 μl of Microscint 40 (Perkin Elmer, Schwerzenbach, Switzerland) was added, plates for sealed, shaken for 20 min and counted for 3 min on a Topcount Microplate Scintillation Counter (Canberra Packard SA, Zürich, Switzerland) with quenching correction.
(§6) The CPM value for each duplicate of a concentration of competing compound was averaged (yl), then the % specific binding was calculated according to the equation (((yl-non-specific)/(total binding-non-specific))×100). Graphs were plotted with the % specific binding using XLfit, a curve fitting program that iteratively plots the data using Levenburg Marquardt algorithm. The single site competition analysis equation used was y=A+((B−A)/(1+((x/C)^D))), where y is the % specific binding, A is the minimum y, B is the maximum y, C is the IC50, x is the log10 of the concentration of the competing compound and D is the slope of the curve (the Hill Coefficient). […] The affinity constant (Ki) was calculated using the Cheng-Prusoff equation Ki=(IC50/1+([L]/Kd), where [L] is the concentration of radioligand and Kd is the dissociation constant of the radioligand at the receptor as determined by the saturation isotherm.

The target in assay [2] is T2, human 5-HT2A serotonin receptor (Homo sapiens, UniProt P28223).
T2 construct: expressed in transfected cells; host or cells: HEK-293 EBNA cells, transient transfection; membrane preparation
Description: Radioligand binding ([3H]-ketanserin) to cloned human 5-HT2A receptor, HEK-293 EBNA cell membranes. The conditions noted are these: 1.1 nM [3H]-ketanserin, 1 h at RT, Cheng-Prusoff. How it is done: as §1
as §2, with “The” for “HEK-293 EBNA cells were transiently transfected with expression plasmids encoding for the human D2 or D3 dopamine- or for the human 5-HT2A serotonin receptor, respectively. The”
as §3, §4
The binding affinity (Ki) of the compounds was determined using radioligand binding. […] The nonspecific binding was determined with equally composed reaction mixtures in the presence of 10 μM unlabeled spiperone. Per well 45 μl of Microscint 40 (Perkin Elmer, Schwerzenbach, Switzerland) was added, plates for sealed, shaken for 20 min and counted for 3 min on a Topcount Microplate Scintillation Counter (Canberra Packard SA, Zürich, Switzerland) with quenching correction.
as §6

Assay [3] concerns the target T3, human D2 dopamine receptor (Homo sapiens, UniProt P14416).
T3 construct: expressed in transfected cells; host or cells: HEK-293 EBNA cells, transient transfection; membrane preparation
Description: Radioligand binding ([3H]-spiperone) to cloned human D2 receptor, HEK-293 EBNA cell membranes. The conditions noted are these: 0.7 nM [3H]-spiperone, 1 h at RT, Cheng-Prusoff. How it is done: as §1, §2, §3, §4, §5, §6

Molecules are shown by their SMILES.

T1 sequence (P35462 whole entry): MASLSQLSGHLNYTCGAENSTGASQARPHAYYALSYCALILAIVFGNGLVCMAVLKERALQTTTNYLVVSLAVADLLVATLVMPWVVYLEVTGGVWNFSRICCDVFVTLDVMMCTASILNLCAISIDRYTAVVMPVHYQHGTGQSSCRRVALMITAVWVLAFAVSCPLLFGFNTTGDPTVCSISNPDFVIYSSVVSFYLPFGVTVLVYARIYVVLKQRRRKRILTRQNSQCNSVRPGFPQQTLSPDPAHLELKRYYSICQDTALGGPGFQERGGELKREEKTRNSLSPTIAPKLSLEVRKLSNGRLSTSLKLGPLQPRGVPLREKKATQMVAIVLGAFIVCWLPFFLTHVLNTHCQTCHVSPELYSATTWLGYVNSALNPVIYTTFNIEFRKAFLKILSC
T3 sequence (P14416 whole entry): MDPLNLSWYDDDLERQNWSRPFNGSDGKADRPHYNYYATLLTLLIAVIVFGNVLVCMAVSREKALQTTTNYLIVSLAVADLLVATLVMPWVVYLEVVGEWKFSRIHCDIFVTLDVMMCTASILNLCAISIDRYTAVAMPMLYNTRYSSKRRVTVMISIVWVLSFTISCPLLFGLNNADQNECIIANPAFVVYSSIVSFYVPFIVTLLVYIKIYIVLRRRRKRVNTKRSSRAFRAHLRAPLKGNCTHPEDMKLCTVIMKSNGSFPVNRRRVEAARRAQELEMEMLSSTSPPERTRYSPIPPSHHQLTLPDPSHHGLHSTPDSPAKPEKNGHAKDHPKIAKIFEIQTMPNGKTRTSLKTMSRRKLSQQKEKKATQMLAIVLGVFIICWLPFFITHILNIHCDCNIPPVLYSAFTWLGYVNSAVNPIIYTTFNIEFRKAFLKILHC
T2 sequence (P28223 whole entry): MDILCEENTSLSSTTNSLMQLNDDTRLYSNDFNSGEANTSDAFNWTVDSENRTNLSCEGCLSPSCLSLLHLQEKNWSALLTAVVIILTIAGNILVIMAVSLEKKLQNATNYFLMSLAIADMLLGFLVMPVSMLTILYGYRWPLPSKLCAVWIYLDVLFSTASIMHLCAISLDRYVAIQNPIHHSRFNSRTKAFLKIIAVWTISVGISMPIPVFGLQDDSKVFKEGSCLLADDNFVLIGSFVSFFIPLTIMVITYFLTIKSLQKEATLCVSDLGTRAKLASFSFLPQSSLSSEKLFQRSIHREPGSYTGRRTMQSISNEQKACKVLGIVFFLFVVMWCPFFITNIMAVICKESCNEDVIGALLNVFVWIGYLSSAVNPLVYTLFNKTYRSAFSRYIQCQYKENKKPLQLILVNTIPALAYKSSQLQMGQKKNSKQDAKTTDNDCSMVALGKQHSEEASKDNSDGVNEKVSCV

For orientation: Ki means a dissociation constant, usually derived from enzyme kinetics or from competition with a known ligand. On to `O=C(CC1CCC(O)CC1)N[C@H]1CC[C@H](CCN2CCC(C(=O)c3ccc(F)cc3)CC2)CC1` (mixture of isomers) [Example 1, N-trans (4-{2-[4-(4-Fluoro-benzoyl)-piperidin-1-yl]-ethyl}-cyclohexyl)-2-cis/trans (4-hydroxy-cyclohexyl)-acetamide], for which the Ki in assay [1] stood at 43 nM; in assay [2] it was 13 nM; in assay [3], 1490 nM.

`O=C(CC1CC(CO)C1)N[C@H]1CC[C@H](CCN2CCC(C(=O)c3ccc(F)cc3)CC2)CC1` (mixture of isomers) [Example 19, N-trans (4-{2-[4-(4-Fluoro-benzoyl)-piperidin-1-yl]-ethyl}-cyclohexyl)-2-cis/trans (3-hydroxymethyl-cyclobutyl)-acetamide]: the Ki worked out at 28 nM in assay [1], 11 nM in assay [2] and 1000 nM in assay [3].

Take `COCC1CC(CC(=O)N[C@H]2CC[C@H](CCN3CCC(C(=O)c4ccc(F)cc4)CC3)CC2)C1` (mixture of isomers) [Example 20, N-trans(4-{2-[4-(4-Fluoro-benzoyl)-piperidin-1-yl]-ethyl}-cyclohexyl)-2-cis/trans (3-methoxymethyl-cyclobutyl)-acetamide]: the Ki in assay [1] came to 27 nM; in assay [2] it was 12 nM; in assay [3], 1360 nM.

Consider `CC1(O)CCC(CC(=O)N[C@H]2CC[C@H](CCN3CCC(C(=O)c4ccc(F)cc4)CC3)CC2)CC1` (mixture of isomers) [Example 22, N-trans (4-{2-[4-(4-Fluoro-benzoyl)-piperidin-1-yl]-ethyl}-cyclohexyl)-2-(4-cis/trans-hydroxy-4-methyl-cyclohexyl)-acetamide], for which the Ki in assay [1] was 56 nM; in assay [2], 12 nM; in assay [3], 1360 nM.

For the compound `O=C(C[C@H]1CCC[C@@H](O)C1)N[C@H]1CC[C@H](CCN2CCC(C(=O)c3ccc(F)cc3)CC2)CC1` (racemic) [Example 4, rac-N-trans (4-{2-[4-(4-Fluoro-benzoyl)-piperidin-1-yl]-ethyl}-cyclohexyl)-2-cis (3-hydroxy-cyclohexyl)-acetamide], the values for the Ki in assay [1], in assay [2] and in assay [3] were 43 nM, 14 nM and 1010 nM, respectively.

For the compound `CO[C@@H]1CCC[C@H](CC(=O)N[C@H]2CC[C@H](CCN3CCC(C(=O)c4ccc(F)cc4)CC3)CC2)C1` (racemic) [Example 5, rac-N-trans (4-{2-[4-(4-Fluoro-benzoyl)-piperidin-1-yl]-ethyl}-cyclohexyl)-2-cis (3-methoxy-cyclohexyl)-acetamide], the Ki came out at 45 nM in assay [1], 19 nM in assay [2] and 1190 nM in assay [3].

Turning to `O=C(C[C@H]1CC[C@@H](O)C1)N[C@H]1CC[C@H](CCN2CCC(C(=O)c3ccc(F)cc3)CC2)CC1` (racemic) [Example 6, rac-trans-N (4-{2-[4-(4-Fluoro-benzoyl)-piperidin-1-yl]-ethyl}-cyclohexyl)-2-cis (3-hydroxy-cyclopentyl)-acetamide], the results for the Ki in assay [1], in assay [2] and in assay [3] were 35 nM, 11 nM and 828 nM, respectively.

As to `CO[C@H]1CC[C@H](CC(=O)N[C@H]2CC[C@H](CCN3CCC(C(=O)c4ccc(F)cc4)CC3)CC2)C1` (racemic) [Example 8, rac-N-trans(4-{2-[4-(4-Fluoro-benzoyl)-piperidin-1-yl]-ethyl}-cyclohexyl)-2-trans (3-methoxy-cyclopentyl)-acetamide], the figures for the Ki in assay [1] and in assay [2] were 23 nM and 16 nM, respectively.

`CO[C@@H]1CC[C@H](CC(=O)N[C@H]2CC[C@H](CCN3CCC(C(=O)c4ccc(F)cc4)CC3)CC2)C1` (racemic) [Example 9, rac-N-trans (4-{2-[4-(4-Fluoro-benzoyl)-piperidin-1-yl]-ethyl}-cyclohexyl)-2-cis (3-methoxy-cyclopentyl)-acetamide]: the results for the Ki in assay [1] and in assay [2] were 42 nM and 6 nM, respectively.

In the case of `CO[C@@H]1CC[C@H](CC(=O)N[C@H]2CC[C@H](CCN3CCC(C(=O)c4ccc(F)cc4)CC3)CC2)C1` (single isomer, unassigned) [Example 10, N-trans (4-{2-[4-(4-Fluoro-benzoyl)-piperidin-1-yl]-ethyl}-cyclohexyl)-2-((1S,3R)-3-methoxy-cyclopentyl)-acetamide or N-trans (4-{2-[4-(4-fluoro-benzoyl)-piperidin-1-yl]-ethyl}-cyclohexyl)-2-((1R,3S)-3-methoxy-cyclopentyl)-acetamide], the Ki was determined as 56 nM in assay [1] and 5 nM in assay [2].

As for `CO[C@H]1CC[C@@H](CC(=O)N[C@H]2CC[C@H](CCN3CCC(C(=O)c4ccc(F)cc4)CC3)CC2)C1` (single isomer, unassigned) [Example 11, N-trans (4-{2-[4-(4-Fluoro-benzoyl)-piperidin-1-yl]-ethyl}-cyclohexyl)-2-((1R,3S)-3-methoxy-cyclopentyl)-acetamide or N-trans (4-{2-[4-(4-fluoro-benzoyl)-piperidin-1-yl]-ethyl}-cyclohexyl)-2-((1S,3R)-3-methoxy-cyclopentyl)-acetamide], the values for the Ki in assay [1] and in assay [2] were 62 nM and 11 nM, respectively.

As to `CO[C@H]1CC[C@H](CC(=O)N[C@H]2CC[C@H](CCN3CCC(C(=O)c4ccc(F)cc4)CC3)CC2)C1` (single isomer, unassigned) [Example 14, N-trans (4-{2-[4-(4-Fluoro-benzoyl)-piperidin-1-yl]-ethyl}-cyclohexyl)-2-((1S,3S)-3-methoxy-cyclopentyl)-acetamide or N-trans (4-{2-[4-(4-fluoro-benzoyl)-piperidin-1-yl]-ethyl}-cyclohexyl)-2-((1R,3R)-3-methoxy-cyclopentyl)-acetamide], the Ki was found to be 18 nM in assay [1] and 7 nM in assay [2].

For the compound `CO[C@@H]1CC[C@@H](CC(=O)N[C@H]2CC[C@H](CCN3CCC(C(=O)c4ccc(F)cc4)CC3)CC2)C1` (single isomer, unassigned) [Example 15, N-trans (4-{2-[4-(4-Fluoro-benzoyl)-piperidin-1-yl]-ethyl}-cyclohexyl)-2-((1R,3R)-3-methoxy-cyclopentyl)-acetamide or N-trans (4-{2-[4-(4-fluoro-benzoyl)-piperidin-1-yl]-ethyl}-cyclohexyl)-2-((1S,3S)-3-methoxy-cyclopentyl)-acetamide], the values for the Ki in assay [1] and in assay [2] were 34 nM and 16 nM, respectively.
